This note sets out measurements from ChEMBL document CHEMBL1201862, “PubChem BioAssay data set” (2004).

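These data come from cells grown in 96-well plates and exposed to compound for 48 hours at five concentrations. Abbreviation: GI50, concentration required for 50% inhibition of growth.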 The source made the active and inactive calls. Rule as the data show it: active = GI50 up to about 1.1 µM and inactive = higher.

Among the test systems are A549; MOLT-4; NCI-H460; HT-29; OVCAR-8; OVCAR-4; HCT-15; SK-MEL-5; Malme-3M; NCI-H23; HCT-116; EKVX; HOP-92; RXF 393; SNB-19; SF-539; IGROV-1; MDA-MB-435; NCI/ADR-RES.
Experiment in all cases: NCI tumour cell line growth inhibition, 48 h

Consider `N#C/C(=C/c1cccnc1)C(=O)c1ccccc1`, for which the GI50 with A549, in the assay with MOLT-4, with NCI-H460, in the assay on HT-29, in the assay on OVCAR-8 and in the assay with OVCAR-4 was > 100 µM (inactive) each time. The GI50 with HCT-15 is more than 100 µM; with SK-MEL-5, > 100 µM (inactive); in the assay with Malme-3M, > 100 µM (inactive); in the assay with NCI-H23 it was > 100 µM (inactive); with HCT-116 it was > 100 µM (inactive); with EKVX it was > 100 µM (inactive). For the same compound, the GI50 with HOP-92, in the assay with RXF 393, in the assay on SNB-19 and in the assay on SF-539 was > 100 µM (inactive) each time.

As to `COc1cc(/C=C/c2ccc(OC)c(OC)c2OC)cc(OC)c1OC`, the GI50 in the assay with A549 was 27.2 µM (inactive); in the assay on MOLT-4 it was 19.3 µM (inactive); in the assay with NCI-H460, 20.3 µM (inactive); in the assay with HT-29, 20.8 µM (inactive); in the assay with OVCAR-8, 24.9 µM (inactive); with OVCAR-4, 25.4 µM (inactive). Moreover, the GI50 is 18.5 µM in the assay on HCT-15; 14.7 µM (inactive) in the assay on SK-MEL-5; 20.2 µM (inactive) with Malme-3M; 23.6 µM (inactive) in the assay with NCI-H23; 14.6 µM (inactive) with HCT-116; 28.2 µM (inactive) in the assay on IGROV-1. Further, the GI50 in the assay with EKVX was 21.5 µM (inactive); with HOP-92, 9.35 µM (inactive); in the assay on RXF 393, 22 µM (inactive); in the assay with SNB-19, 21.3 µM (inactive); in the assay with SF-539 it was 18.5 µM (inactive).

`CC[S+](C)c1ccc(-c2c3nc(c(-c4ccc([S+](C)CC)cc4)c4ccc([nH]4)c(-c4ccc([S+](C)CC)cc4)c4nc(c(-c5ccc([S+](C)CC)cc5)c5ccc2[nH]5)C=C4)C=C3)cc1.[O-][Cl+3]([O-])([O-])[O-].[O-][Cl+3]([O-])([O-])[O-].[O-][Cl+3]([O-])([O-])[O-].[O-][Cl+3]([O-])([O-])[O-]` (centres undefined): the GI50 is 18.5 µM (inactive) in the assay on A549; 20 µM (inactive) with MOLT-4; 22 µM (inactive) in the assay with NCI-H460; 29.2 µM (inactive) with HT-29; 22.9 µM (inactive) in the assay on OVCAR-8; > 100 µM (inactive) with OVCAR-4. The GI50 was 19.3 µM in the assay on HCT-15; 24.7 µM (inactive) in the assay on SK-MEL-5; 4.4 µM (inactive) in the assay on Malme-3M; 38.6 µM (inactive) in the assay on NCI-H23; 27.9 µM (inactive) in the assay with HCT-116; 11 µM (inactive) in the assay on EKVX. Further, the GI50 in the assay on HOP-92 was 0.649 µM (active); with RXF 393 it was 13.6 µM (inactive); with SNB-19, 93.8 µM (inactive); with SF-539, 27.4 µM (inactive).

With `Cc1cc2c(c3nocc13)C(=O)c1ccccc1C2=O`, the GI50 in the assay with A549, in the assay on MOLT-4, in the assay on NCI-H460, in the assay with HT-29, with OVCAR-8 and in the assay with OVCAR-4 was > 100 µM (inactive) in each case. Further, the GI50 is more than 100 µM with HCT-15; > 100 µM (inactive) in the assay on SK-MEL-5; > 100 µM (inactive) in the assay on Malme-3M; > 100 µM (inactive) in the assay with NCI-H23; > 100 µM (inactive) with IGROV-1; > 100 µM (inactive) in the assay on EKVX. Besides, the GI50 was 16.2 µM (inactive) with HOP-92, > 100 µM (inactive) in the assay on RXF 393, > 100 µM (inactive) in the assay on SNB-19 and > 100 µM (inactive) in the assay on SF-539.

Consider `COc1cccc(N(CN2C(=O)CCC2OC)C(C)=O)c1` (centres undefined), for which the GI50 in the assay with A549, in the assay with MOLT-4, in the assay with NCI-H460, in the assay with HT-29, in the assay with MDA-MB-435 and in the assay with OVCAR-8 was > 100 µM (inactive) throughout. Moreover, the GI50 in the assay on OVCAR-4 is > 100 µM (inactive); in the assay with HCT-15 it was more than 100 µM; in the assay on NCI/ADR-RES, > 100 µM (inactive); in the assay with SK-MEL-5, > 100 µM (inactive); in the assay with NCI-H23, > 100 µM (inactive); with HCT-116, > 100 µM (inactive). Also, the GI50 with HOP-92, with RXF 393, in the assay with SNB-19 and with SF-539 was > 100 µM (inactive) in each case.

As to `N/N=c1\c2ccccc2c2cc3c(cc12)/c(=N/N)c1ccccc13`, the GI50 in the assay on A549, in the assay on MOLT-4, in the assay on NCI-H460, in the assay on HT-29, with OVCAR-8 and in the assay with OVCAR-4 was > 100 µM (inactive) throughout. Further, the GI50 with HCT-15 is more than 100 µM; in the assay with SK-MEL-5, > 100 µM (inactive); with Malme-3M, > 100 µM (inactive); with NCI-H23, > 100 µM (inactive); in the assay on HCT-116, > 100 µM (inactive); in the assay with IGROV-1 it was > 100 µM (inactive). Moreover, the GI50 with EKVX, in the assay with HOP-92, with RXF 393, with SNB-19 and with SF-539 was > 100 µM (inactive) throughout.

In the case of `COCc1cc2c(cc1/C(=C/[N+](=O)[O-])CS(=O)(=O)c1ccccc1)OCO2`, the GI50 in the assay on A549, with MOLT-4, with NCI-H460, in the assay on HT-29, in the assay with MDA-MB-435 and in the assay on OVCAR-8 was > 100 µM (inactive) in each case. In addition, the GI50 in the assay with HCT-15 is more than 100 µM; in the assay on NCI/ADR-RES, > 100 µM (inactive); with SK-MEL-5 it was > 100 µM (inactive); in the assay with NCI-H23, > 100 µM (inactive); in the assay on HCT-116, > 100 µM (inactive); with IGROV-1, > 100 µM (inactive). Moreover, the GI50 in the assay with EKVX, in the assay with HOP-92, in the assay with RXF 393 and in the assay on SF-539 was > 100 µM (inactive) in each case.

As to `COc1ccc(C2CC(c3cc(C)ccc3O)=NC(N)=N2)cc1` (centres undefined), the GI50 in the assay with A549, in the assay on MOLT-4, in the assay on NCI-H460, in the assay on HT-29, in the assay with OVCAR-8 and in the assay with OVCAR-4 was > 100 µM (inactive) in each case. The GI50 with HCT-15 is more than 100 µM; in the assay on Malme-3M it was > 100 µM (inactive); with NCI-H23 it was > 100 µM (inactive); with HCT-116 it was > 100 µM (inactive); in the assay on IGROV-1, > 100 µM (inactive); in the assay on EKVX it was > 100 µM (inactive). The GI50 with HOP-92, in the assay on RXF 393, with SNB-19 and with SF-539 was > 100 µM (inactive) each time.

Consider `O=C(O)C1C2C=CC(O2)C1C(=O)NCc1ccncc1` (centres undefined), for which the GI50 in the assay on A549, in the assay on NCI-H460, with HT-29, in the assay on MDA-MB-435, in the assay with OVCAR-8 and in the assay with OVCAR-4 was > 100 µM (inactive) in each case. Moreover, the GI50 in the assay with SK-MEL-5, in the assay on Malme-3M, in the assay with HCT-116, in the assay on IGROV-1, in the assay with EKVX and in the assay on HOP-92 was > 100 µM (inactive) in each case. Also, the GI50 with RXF 393, in the assay on SNB-19 and in the assay on SF-539 was > 100 µM (inactive) throughout.

As for `COc1ccc(N[S+]([O-])CCc2ccccc2)cc1` (centres undefined), the GI50 in the assay with A549, in the assay with MOLT-4, in the assay with NCI-H460, in the assay with HT-29, in the assay with MDA-MB-435 and in the assay with OVCAR-8 was > 100 µM (inactive) each time. For the same compound, the GI50 in the assay with HCT-15 was more than 100 µM; in the assay with NCI/ADR-RES, 58.1 µM (inactive); with SK-MEL-5, > 100 µM (inactive); in the assay on Malme-3M, > 100 µM (inactive); in the assay with NCI-H23, > 100 µM (inactive); with HCT-116, > 100 µM (inactive). Besides, the GI50 in the assay with IGROV-1 was 92.5 µM (inactive); in the assay with EKVX, > 100 µM (inactive); in the assay on RXF 393, > 100 µM (inactive); in the assay on SNB-19, > 100 µM (inactive); in the assay on SF-539, > 100 µM (inactive).

For `CC1CC(N)=C(C#N)C1(C#N)C#N` (centres undefined), the GI50 is > 100 µM (inactive) in the assay on A549; > 100 µM (inactive) in the assay on MOLT-4; > 100 µM (inactive) in the assay with HT-29; > 100 µM (inactive) with MDA-MB-435; > 100 µM (inactive) in the assay with OVCAR-8; 28.4 µM with HCT-15. Besides, the GI50 in the assay with NCI/ADR-RES, in the assay with Malme-3M, with NCI-H23, in the assay with HCT-116, in the assay on IGROV-1 and in the assay on EKVX was > 100 µM (inactive) in each case. The GI50 in the assay with HOP-92, in the assay on RXF 393, in the assay with SNB-19 and in the assay with SF-539 was > 100 µM (inactive) throughout.

Regarding `S=c1cc(S)c2c(=S)sc3nc4ccccn4c(=S)c3c2s1`, the GI50 with A549 was > 100 µM (inactive); in the assay with MOLT-4, 27.2 µM (inactive); with NCI-H460 it was 21.3 µM (inactive); in the assay on HT-29, 45.2 µM (inactive); in the assay on OVCAR-8 it was 33.3 µM (inactive); in the assay on OVCAR-4 it was > 100 µM (inactive). Besides, the GI50 was 49.8 µM in the assay with HCT-15; 38.5 µM (inactive) in the assay with SK-MEL-5; > 100 µM (inactive) in the assay with Malme-3M; > 100 µM (inactive) in the assay with NCI-H23; 25 µM (inactive) in the assay on HCT-116; 81.8 µM (inactive) in the assay on EKVX. Moreover, the GI50 in the assay with HOP-92 is > 100 µM (inactive); in the assay on RXF 393 it was > 100 µM (inactive); in the assay on SNB-19, 52.5 µM (inactive); in the assay with SF-539, 41 µM (inactive).
